PMC5218480 (PLoS ONE, 2017)

System: MV-4-11 cells
Assay: Gene expression microarray analysis (Affymetrix PrimeView) and GSEA
Type: cell-based, human
Details: gene C12orf56, chromosome 12 open reading frame 56; Azacitidine 1 mM; LIST F

In the case of Nc1ncn([C@@H]2O[C@H](CO)[C@@H](O)[C@H]2O)c(=O)n1 [azacitidine], the “RFU, C12orf56 (ProbeSet 11735607_a_at)” value was 185.59 RFU.
